Drawing on publication PMC10094600, “Enzymatic Synthesis of 2-Chloropurine Arabinonucleosides with Chiral Amino Acid Amides at the C6 Position and an Evaluation of Antiproliferative Activity In Vitro” (International Journal of Molecular Sciences, 2023), this text covers Ki for 3 compounds.

This test addresses T1, E. coli adenosine deaminase (Escherichia coli, UniProt P22333).
T1 construct: gene add; recombinant
T1 sequence (P22333 1-333): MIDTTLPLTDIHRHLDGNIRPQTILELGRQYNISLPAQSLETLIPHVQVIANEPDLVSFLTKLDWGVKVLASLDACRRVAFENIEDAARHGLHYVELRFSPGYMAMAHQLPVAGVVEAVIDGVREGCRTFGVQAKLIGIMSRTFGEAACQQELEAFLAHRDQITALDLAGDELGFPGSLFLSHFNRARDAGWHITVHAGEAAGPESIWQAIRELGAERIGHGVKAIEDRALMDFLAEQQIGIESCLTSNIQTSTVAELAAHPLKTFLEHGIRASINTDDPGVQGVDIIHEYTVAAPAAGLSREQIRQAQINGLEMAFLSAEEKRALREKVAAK
Briefly: inhibition of adenosine deamination, HPLC, Lineweaver-Burk. It counts as biochemical.
For the compound `NC(=O)[C@H](CO)Nc1nc(Cl)nc2c1ncn2[C@@H]1O[C@H](CO)[C@@H](O)[C@@H]1O` [4b, 9-β-D-Arabinofuranosyl-2-chloro-6-(N^α-L-serinylamido)-purine], the Ki – broadly, the dissociation constant of the complex between target and ligand, obtained from inhibition or displacement – stood at 1200 ± 200 µM.
The compound `Nc1nc(Cl)nc2c1ncn2[C@@H]1O[C@H](CO)[C@@H](O)[C@H]1O` [compound 15, 2-chloradenosine] yielded a Ki of 78 ± 12 µM.
As for `Nc1nc(Cl)nc2c1ncn2[C@@H]1O[C@H](CO)[C@@H](O)[C@@H]1O` [compound 16, 6-Amino-2-chloro-9-beta-D-arabinofuranosyl-9H-purine], the affinity, expressed as Ki, was 130 ± 20 µM.
